ChEMBL document CHEMBL1667776, “Pharmacophore-based design, synthesis, and biological evaluation of novel chloro-pyridazine piperazines as human rhinovirus (HRV-3) inhibitors” (Bioorg Med Chem Lett, 2011)
≈ marks a conversion by molar mass, not a printed value.

test system: rhinovirus B14; experiment: Antiviral activity against HRV-14; format: functional, organism-based; conditions: Rhinovirus B

| EC50 [µg/mL] | SMILES |
| --- | --- |
| 0.0032 (≈ 0.00866 µM) | CCOC(=O)c1ccc(OCCC2CCN(c3ccc(C)nn3)CC2)cc1 [PIRODAVIR] |
| 0.032 (≈ 0.0837 µM) | CCOc1nc2cc(OCCC3CCN(c4ccc(C)nn4)CC3)ccc2o1 |
| 0.03 (≈ 0.0787 µM) | Cc1cc(CCCOc2c(C)cc(-c3noc(C(F)(F)F)n3)cc2C)on1 [PLECONARIL] |
